Source: the supplement of paper PMC10307832

Tests used:
Test in all cases: relative viability (nuclei count vs DMSO), 5 days (fraction); higher = more cells survive
[1] = compound: COc1cc2nc(N3CCCN(C)CC3)nc(NC3CCN(Cc4ccccc4)CC3)c2cc1OC + Cc1nc(NC(=O)N2CCC[C@H]2C(N)=O)sc1-c1ccnc(C(C)(C)C(F)(F)F)c1 [Alpelisib] (partner 2 µM)
In short: (§1)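 The day after seeding in 1536-well plates, lung cancer cell lines were treated by pin tool with a single drug, or with a fixed anchor-drug dose together with five library-drug doses (not always all listed) in √10 steps. After 5 days, a combined fix-and-stain solution (final 0.05% Triton X-100, 1% formaldehyde, 1 ug/ml Hoechst) was added. Nuclei counted on 4× images gave relative viability as treated counts over vehicle counts, reported as the median of duplicate plates.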

[2] = compound: COc1cc2nc(N3CCCN(C)CC3)nc(NC3CCN(Cc4ccccc4)CC3)c2cc1OC + Cc1nc(Nc2ncc(C(=O)Nc3c(C)cccc3Cl)s2)cc(N2CCN(CCO)CC2)n1 [Dasatinib] (partner 0.075 µM)
In short: as §1

AZD6482 + Foretinib = compound: Cc1cc([C@@H](C)Nc2ccccc2C(=O)O)c2nc(N3CCOCC3)cc(=O)n2c1 [AZD6482] + COc1cc2c(Oc3ccc(NC(=O)C4(C(=O)Nc5ccc(F)cc5)CC4)cc3F)ccnc2cc1OCCCN1CCOCC1 [Foretinib] (partner 0.25 µM)
In short: as §1

AZD6482 + Phenformin = compound: Cc1cc([C@@H](C)Nc2ccccc2C(=O)O)c2nc(N3CCOCC3)cc(=O)n2c1 [AZD6482] + N=C(N)NC(=N)NCCc1ccccc1 [Phenformin] (partner 250 µM)
In short: as §1

Cell Line	relative viability ([1]; first compound 0.2 µM)	relative viability ([1]; first compound 0.6325 µM)	relative viability ([1]; first compound 2 µM)	relative viability ([1]; first compound 6.325 µM)	relative viability ([2]; first compound 0.2 µM)	relative viability ([2]; first compound 0.6325 µM)	relative viability ([2]; first compound 2 µM)	relative viability ([2]; first compound 6.325 µM)	relative viability (AZD6482 + Foretinib; first compound 0.08 µM)	relative viability (AZD6482 + Foretinib; first compound 0.253 µM)	relative viability (AZD6482 + Foretinib; first compound 0.8 µM)	relative viability (AZD6482 + Foretinib; first compound 2.53 µM)	relative viability (AZD6482 + Foretinib; first compound 8 µM)	relative viability (AZD6482 + Phenformin; first compound 0.08 µM)	relative viability (AZD6482 + Phenformin; first compound 0.253 µM)	relative viability (AZD6482 + Phenformin; first compound 0.8 µM)	relative viability (AZD6482 + Phenformin; first compound 2.53 µM)	relative viability (AZD6482 + Phenformin; first compound 8 µM)
201T	1.01	0.998	1.05	1.01	0.573	0.495	0.549	0.557	1.07	1.01	1.11	0.734	1.08	0.436	0.433	0.496	0.308	0.314
A549	0.694	0.8	0.761	0.722					0.898	0.842	0.979	0.596	0.743	0.154	0.14	0.222	0.158	0.153
A-427	1.12	0.98	0.997	1.08	0.64	0.707	0.749	0.651	0.959	0.937	1.13		1.05	0.345	0.232	0.319		0.225
ABC-1	0.955	0.988	1.18	0.92	0.531	0.525	0.568	0.581	0.868	1.21	1.03	0.86	0.719	0.212	0.237	0.283	0.229	0.205
BEN	1.07	1	1.13	1.06	0.384	0.389	0.36	0.351	0.675	0.62	0.701	0.558	0.739	0.349	0.281	0.24	0.277	0.182
CAL-12T	1.21	1.23	1.16	1.15	0.37	0.325	0.54	0.294	1.11	1.22	1.2	0.792	1	0.615	0.517	0.568	0.336	0.418
COR-L23	0.799	0.724	0.944	0.712	0.57	0.476	0.559	0.519	0.888	1.04	1.03	0.81	0.799	0.412	0.445	0.455	0.343	0.373
COR-L 105	1.11	0.86	1.08	0.732	0.338	0.472	0.328	0.25	1.08	0.711	1.03	0.744	0.932	0.515	0.443	0.446	0.409	0.299
Calu-6	0.884	0.926	1	0.976					0.789	0.815	0.9	0.644	0.765					
ChaGo-K-1					0.514	0.617	0.592	0.584	0.973	0.863	0.833	0.894	0.968	0.54	0.397	0.446	0.48	0.416
EBC-1	0.82	0.798	0.787	0.697					0.102	0.104	0.124	0.0931	0.115					
EKVX	0.918	0.833	0.92	0.784	0.571	0.52	0.474	0.526	0.746	0.654	0.921	0.542	0.614	0.212	0.22	0.233	0.171	0.208
EMC-BAC-2	0.765	0.69	0.784	0.77	0.345	0.305	0.327	0.371	0.861	0.94	0.969	0.718	0.698	0.489	0.445	0.493	0.352	0.44
EPLC-272H	0.952	0.904	1.05	0.912	0.384	0.411	0.453	0.37	0.621	0.426	0.506	0.378	0.256	0.311	0.241	0.343	0.24	0.154
H3255	0.632	0.852	0.86	0.523	0.401	0.5	0.448	0.342	1.03	0.662	0.898	0.498	0.627	0.356	0.333	0.386	0.343	0.34
HARA	0.798	0.823	0.858	0.87	0.275	0.271	0.255	0.266	0.811	0.809	0.889	0.663	0.61	0.376	0.395	0.486	0.399	0.168
HCC-15	0.886	0.842	0.875	0.687	0.632	0.706	0.654	0.44	0.989	0.882	1.01	0.853	0.988	0.499	0.462	0.457	0.349	0.406
HCC-44	0.832	0.748	0.841	0.746										0.255	0.14	0.189	0.169	0.167

Cell Line	relative viability ([1]; first compound 0.2 µM)	relative viability ([1]; first compound 0.6325 µM)	relative viability ([1]; first compound 2 µM)	relative viability ([1]; first compound 6.325 µM)	relative viability ([2]; first compound 0.2 µM)	relative viability ([2]; first compound 0.6325 µM)	relative viability ([2]; first compound 2 µM)	relative viability ([2]; first compound 6.325 µM)	relative viability (AZD6482 + Foretinib; first compound 0.08 µM)	relative viability (AZD6482 + Foretinib; first compound 0.253 µM)	relative viability (AZD6482 + Foretinib; first compound 0.8 µM)	relative viability (AZD6482 + Foretinib; first compound 2.53 µM)	relative viability (AZD6482 + Foretinib; first compound 8 µM)	relative viability (AZD6482 + Phenformin; first compound 0.08 µM)	relative viability (AZD6482 + Phenformin; first compound 0.253 µM)	relative viability (AZD6482 + Phenformin; first compound 0.8 µM)	relative viability (AZD6482 + Phenformin; first compound 2.53 µM)	relative viability (AZD6482 + Phenformin; first compound 8 µM)
HCC-78	0.354	0.364	0.297	0.251	0.486	0.557	0.362	0.421	0.471	0.493	0.517	0.351	0.349	0.506	0.421	0.562	0.309	0.31
HCC-366	0.519	0.558	0.468	0.283	0.697	0.599	0.504	0.571	0.938	0.897	0.936	0.759	0.447	0.663	0.609	0.636	0.477	0.45
HCC-827	0.906	0.922	0.952	0.891	0.398	0.237	0.258	0.379	0.986	0.878	0.945	0.678	0.499	0.45	0.345	0.381	0.288	0.301
HOP-62	0.878	0.932	0.829	0.877	0.748	0.62	0.711	0.65	1.12	1.15	1.23	0.94	1.02	0.679	0.733	0.745	0.577	0.707
IA-LM	0.688	0.823	1.02	1.01					1.18	1.2	1.52		1.09					
LC-2-ad	0.883	0.89	0.943	0.896	0.493	0.618	0.804	0.65	0.902	0.939	0.878	0.714	0.787	0.615	0.497	0.6	0.442	0.471
LCLC-97TM1	0.241		0.243	0.258	0.857	0.701	0.877	0.915	0.854	0.778	0.823	0.595	0.596	0.443	0.44	0.39	0.363	0.308
LCLC-103H	1.04	0.648	0.939	0.994	0.394	0.344	0.532	0.479	0.603	0.55	0.56	0.379	0.33	0.255	0.274	0.342	0.251	0.215
LK-2	1.02	1.05	1.26	1.01	0.35	0.341	0.261	0.324	1.3	1.08	1.22	0.822	0.948	0.405	0.382	0.257	0.338	0.184
NCI-H522					0.963	1.15	1.02	0.92						0.607	0.764	0.7	0.654	0.396
NCI-H1299	1.03	1.08	1.06	1.08					1.06	1.13	1.31	1.11	1.12					
NCI-H1623					0.517	0.604	0.507	0.524	0.778	0.888	0.923	0.703	0.682	0.577	0.579	0.531	0.502	0.534
NCI-H1650					0.28	0.367	0.327	0.233	0.902	0.937	0.933	0.738	0.684	0.333	0.369	0.373	0.233	0.297
NCI-H1703	0.313	0.265	0.402	0.353					0.266	0.414	0.322	0.259	0.259					
NCI-H1792	0.725	0.74	0.717	0.737	0.89	0.781	0.824	0.816						0.222	0.237	0.298		0.13
NCI-H2342					0.34	0.295	0.311	0.312	0.927	0.891	0.987	0.614	0.653	0.517	0.569	0.682	0.373	0.429
SW 900					0.411	0.578	0.654	0.498	0.751	0.753	0.773		0.792	0.48	0.29	0.449		0.414
